Entries after “also recorded” stand apart in the source; their conditions may differ. Like-named read-outs stand apart in the source and are kept apart here.
How the values were obtained:
Type in all cases: cell-based
[1] = test system: immortalized human meibomian gland epithelial cells; assay: Cell proliferation, cells counted with a hemocytometer; settings: for cell proliferation: 10 nM IGF-1 or 10 μg/mL AZM, 13 days, P<0.0001; for cell number: 10 nM
Method: (§1) As an example of these experiments, immortalized human meibomian gland epithelial cells were cultured in the presence or absence of 10% fetal bovine serum. Cells were treated with an ethanol vehicle or azithromycin (10 μg/ml; Santa Cruz Biotechnology) for varying time periods. Cellular morphological appearance was recorded, cells were counted with a hemocytometer, and lipid accumulation was assessed by staining the cells with LipidTOX green neutral lipid stain (Invitrogen, Grand Island, N.Y.), according to reported methods. Staining fluorescent intensities were quantified by using ImageJ (http://rsbweb.nih.gov/ij/index.html). Statistical analyses were performed with Student's t-test (two-tailed, unpaired).
(§2) Immortalized human meibomian gland epithelial cells (IHMGECs; passages 20-22) were cultured in the presence or absence of 10% fetal bovine serum. Cells were treated with the ethanol vehicle or azithromycin (10 μg/mL) for varying periods. Cellular morphological appearance was recorded, cells were counted with a hemocytometer, and lipid accumulation was assessed by staining cells with LipidTOX green neutral lipid stain (Invitrogen Corp). Staining fluorescent intensities were quantified using ImageJ software (http://rsbweb.nih.gov/ij/index.html). Statistical analyses were performed with t test (2-tailed, unpaired).
Regarding cell proliferation assay, the human meibomian gland epithelial cells and LNCaP cells were cultured in 12-well plates in designated media and then exposed to IGF-1 or GH for defined periods. At experimental termination, cells were trypsinized and counted with a hemocytometer.
FIGS. 10a, 10b, and 10c illustrate the influence of IGF-1 on the proliferation of human meibomian gland epithelial cells. Cells were cultured (100,000 cells/well in 12-well plates, 3 wells per group) in basal, proliferating, and/or differentiating media and treated with IGF-I for 2 to 6 days. […] P values are for post hoc comparison compared with the control value. […] ANOVA indicates analysis of variance; EGF-BPE, epidermal growth factor-bovine pituitary extract; KSFM, keratinocyte serum-free medium. All comparisons are with control value. Whiskers mark SEM. aP<0.05 compared with the control value, post hoc test.

[2] = test system: immortalized human meibomian gland epithelial cells; assay: LipidTOX green neutral lipid staining (lipid accumulation); settings: for accumulation of lipid: days 1 to 7; for accumulation of neutral lipids: 10 nM, 6 days, differentiation media
Method: as §1, §2
Cell numbers were enumerated with a hemocytometer. Cellular lipid and lysosome accumulation were examined by staining cells with: Filipin III (a fluorometric probe for identifying unesterified cholesterol), LipidTOX green neutral lipid stain, and LysoTracker® Red DND-99 (a fluorescent technique designed for labeling acidic organelles such as lysosomes). Lysosomal lamellar bodies were identified by transmission electron microscopy. In brief, after culture and treatment on 24 mm polycarbonate membrane transwell inserts (0.4 μm pore size), cells were fixed in a solution of 2% formaldehyde+2.5% glutaraldehyde, in 0.08 M sodium cacodylate buffer, pH 7.4, post-fixed with 2% osmium tetroxide in 0.1 M sodium cacodylate buffer, and stained en bloc with 2% aqueousuranyl acetate. […] Cross sections (1 μM) were stained with 1% toluidine blue in 1% sodium tetraborate solution. Ultra-thin sections (60-90 nm) were imaged with a transmission electron microscope interfaced with a digital CCD camera. For biochemical assessments, cellular lipids were extracted with chloroform and methanol from samples with the same amount of protein. Lipids were then evaluated with high-performance thin-layer chromatography. With regard to the staining results, three Filipin, five LipidTox and four LysoTracker studies were conducted, and each experiment was performed in duplicate. Four random pictures were taken of each group, and four random areas were selected for the measurement of fluorescent intensities. The HPTLC experiments were performed in duplicate more than three times. Image data were quantified with ImageJ (http://rsbweb.nib.gov/ij/index.html). Electron microscopic analyses were performed in triplicate.
The experiment included green neutral lipid staining. Immortalized human meibomian gland epithelial cells were cultured in slides treated to facilitate cell growth in FBS-containing medium in the presence or absence of IGF-1, anti-IGF-1R, and/or GH. Media were replaced every 2 to 3 days for a total of 6 days, at which time cells were washed and fixed in 4% paraformaldehyde for 30 minutes. After additional washes, cells were stained with green neutral lipid stain in a humid chamber for 30 minutes. Coverslips were mounted on slides with an antifade reagent that contains 4′,6-diamidino-2-phenylindole nuclear stain and permitted to dry overnight before imaging with a microscope. Fluorescence intensity was quantified using image-processing software.

[3] = test system: human meibomian gland epithelial cells; assay: Immunoblot of SREBP-1 and cyclins B1, D1; settings: for amount of the precursor form of SREBP-1 protein: 10 nM, 6 days, differentiation media
Method: The disclosure turns now to sodium dodecyl sulfate-polyacrylamide gel, electrophoresis, and immunoblots. Cells were directly lysed in Laemmli buffer supplemented with 1% protease inhibitor cocktail (Sigma-Aldrich) and 5% β-mercaptoethanol (Sigma-Aldrich). Lysates were heated at 95° C. for 10 minutes, separated by sodium dodecyl sulfate-polyacrylamide gel electrophoresis on 10% Tris-glycine precast gels, and transferred to polyvinylidene difluoride membranes. Rabbit or mouse antibodies used were specific for phosphorylated Akt (p-Akt), pan-Akt, p-FoxO1, FoxO1, p-JAK2, JAK2, and β-actin; for p-ERK, ERK-2, STAT5, and the precursor form of SREBP-1; and for p-STAT5. Membranes were blocked with 5% bovine serum albumin in Tris-buffered saline containing 0.01% polysorbate 20. All primary antibodies were diluted to 1:1000 in blocking buffer except for p-Akt (1:4000), p-ERK (1:2000), ERK-2 (1:4000), SREBP-1 (1:200), and β-actin (1:10 000). Horseradish peroxidase-conjugated secondary antibodies were goat anti-rabbit IgG and Fc-specific goat anti-mouse IgG diluted to 1:5000. Proteins were visualized with enhanced chemiluminescent substrate or with ultrasensitive chemiluminescent substrate. Densitometry was performed with image-processing software.
Turning to the influence of IGF-1 and GH on SREBP-1 expression and lipid accumulation, the experiments examined whether IGF-1 stimulates SREBP-1 expression and lipid accumulation in human meibomian gland epithelial cells. Cells were cultured for 6 days in differentiation media with IGF-1 and then processed the cells for protein and histologic analysis.
FIGS. 11a, 11b, 11c, and 11d illustrate the effect of IGF-1 on sterol regulatory element-binding protein (SREBP-1) expression and lipid accumulation in human meibomian gland epithelial cells. Cells were exposed to IGF-1 or growth hormone (GH) for 6 days in differentiation media and then processed for the analysis of the precursor form of SREBP-1 protein. […] represents 4′,6-diamidino-2-phenylindole nuclear staining. The SREBP-1 densitometry, normalized to that of β-actin, and neutral lipid staining fluorescence intensity (6 field views per treatment condition) were quantified by using image-processing software. These experiments were repeated at least 3 times with similar results. ANOVA indicates analysis of variance; AU, arbitrary units. Whiskers represent SEM.
FIGS. 15a, 15b, 15c, and 15d illustrate the effect of IGF-1, AZM, and IFG-1+AZM combination on the expression of SREBP-1, cyclins B1, and D1. Cells were incubated with vehicle, 10 nM IGF-1, 10 μg/mL AZM, or IGF-1+AZM combination for 5 days. Cell lysates were evaluated on immunoblots for precursor and mature forms of SREBP-1, cyclins B1 and D1. FIG. 15a quantifies the protein band intensities using ImageJ. […] These experiments were repeated at least three times with similar results.

[4] = azithromycin 10 μg/ml vs vehicle
[5] = 10 nM IGF-1 or 10 μg/mL AZM, 5 days

Compound | cell proliferation [1] | proliferation ([1]; azithromycin 10 μg/ml, absence and presence of serum, days 1 to 7) | fluorescence intensity of LipidTOX staining ([2]; 10 μg/mL, 13 days, two-way ANOVA P<0.0001) | accumulation of neutral lipids (LipidTOX) ([2]; 10 μg/ml, 5 days) | time to marked increase of number, size and staining intensity of intracellular lipid-containing vesicles [2, 4] [days] | accumulation of lipid [2, 4] | accumulation of lipid ([2]; azithromycin 10 μg/ml vs vehicle, listed as azithromycin) | expression of mature SREBP-1 [3, 5] | expression of SREBP-1 protein ([3]; azithromycin 10 μg/ml) | proliferation ([1]; any of the media, doses 0.1 to 100 nM) | accumulation of neutral lipids [2] | amount of the precursor form of SREBP-1 protein [3] | proliferation [1] | cell number ([1]; 10% FBS-containing medium, 2 to 6 days) | cell number ([1]; keratinocyte serum-free medium alone or with EGF-BPE, 2 days) | expression of pre-SREBP-1 ([3]; 10 nM IGF-1, 5 days) | expression of cyclin B1 [3, 5] | expression of SREBP-1 protein ([3]; IGF-1 10 nM, alone or with GH and/or DHT)
CC[C@H]1OC(=O)[C@H](C)[C@@H](O[C@H]2C[C@@](C)(OC)[C@@H](O)[C@H](C)O2)[C@H](C)[C@@H](O[C@@H]2O[C@H](C)C[C@H](N(C)C)[C@H]2O)[C@](C)(O)C[C@@H](C)CN(C)[C@H](C)[C@@H](O)[C@]1(C)O [Azithromycin] | significant but opposite effect | generally reduced the proliferation | significant effect | significantly stimulates the accumulation | ≤ 3 | striking, time-dependent accumulation of lipid | time-dependent accumulation of lipids; also recorded: striking, time-dependent accumulation of lipid | significant effect | increased expression | – | – | – | – | – | – | – | – | –
GH: human growth hormone | – | – | – | – | – | – | – | – | – | no influence on the proliferation | not duplicated | not duplicated | – | – | – | – | – | –
IGF-1: recombinant human insulin-like growth factor 1 | significant but opposite effect | – | – | – | – | – | – | significantly affected | – | – | increase in the accumulation of neutral lipids | rise in the amount of the precursor form of SREBP-1 protein | increases the proliferation | increase in cell number | not under basal conditions | significantly affected | significantly affected | significant increase in the expression of SREBP-1 protein
